What was measured:
AHR [1] = target: T1, AHR (Mus musculus, UniProt P30561); assay: In vitro assay 3: antagonism in mouse cell line (AHR transactivation, firefly luciferase reporter, kynurenic acid prestimulated); type: cell-based; settings: mouse Hepa 1c1c7 cells, 200 μM kynurenic acid, 20 hours, read-out: AHR Antagonism Mouse IC50
T1 sequence (P30561 1-848 P471L/N533S/M589L): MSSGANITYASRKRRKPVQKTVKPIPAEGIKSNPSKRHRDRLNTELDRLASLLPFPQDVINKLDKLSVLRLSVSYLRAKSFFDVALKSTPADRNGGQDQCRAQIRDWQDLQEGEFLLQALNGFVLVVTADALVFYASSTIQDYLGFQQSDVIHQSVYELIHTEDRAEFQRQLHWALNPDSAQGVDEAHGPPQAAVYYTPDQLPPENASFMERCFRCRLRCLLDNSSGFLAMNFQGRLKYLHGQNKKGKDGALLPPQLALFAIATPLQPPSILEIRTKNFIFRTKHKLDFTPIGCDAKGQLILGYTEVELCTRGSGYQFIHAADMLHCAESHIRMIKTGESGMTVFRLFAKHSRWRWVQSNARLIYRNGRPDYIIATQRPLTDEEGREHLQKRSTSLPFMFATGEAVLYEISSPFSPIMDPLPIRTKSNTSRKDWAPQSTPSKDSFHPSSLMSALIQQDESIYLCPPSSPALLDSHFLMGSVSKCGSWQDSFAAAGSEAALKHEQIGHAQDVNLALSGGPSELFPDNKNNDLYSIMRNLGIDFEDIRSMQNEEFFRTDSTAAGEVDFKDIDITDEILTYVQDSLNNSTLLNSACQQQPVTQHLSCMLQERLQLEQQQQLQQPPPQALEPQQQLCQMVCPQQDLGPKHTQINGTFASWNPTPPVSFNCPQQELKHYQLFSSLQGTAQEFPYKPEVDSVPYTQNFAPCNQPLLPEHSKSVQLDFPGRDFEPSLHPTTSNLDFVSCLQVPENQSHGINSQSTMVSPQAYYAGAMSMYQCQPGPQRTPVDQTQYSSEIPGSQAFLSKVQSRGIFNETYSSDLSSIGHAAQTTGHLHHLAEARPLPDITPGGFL
Outline: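 Mouse cells stably carrying a DRE-driven, AHR-inducible firefly luciferase reporter were prestimulated with the endogenous agonist kynurenic acid before compound addition. Luciferase activity was measured by luminescence and normalized to positive and negative controls, with cells lacking kynurenic acid serving as full-inhibition control. Repeat tests are reported as mean or median.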

AHR [2] = target: T2, AHR (Homo sapiens, UniProt P35869); assay: In vitro assay 1: antagonism in human cell line (AHR transactivation, firefly luciferase reporter, kynurenic acid prestimulated); type: cell-based; settings: AHR Antagonism Human IC50 [M]
T2 construct: U87 MG glioblastoma cells (ATCC #HTB-14) endogenously expressing AHR; endogenous in cells; host or cells: U87 MG glioblastoma cells (ATCC #HTB-14)
T2 sequence (P35869 11-848): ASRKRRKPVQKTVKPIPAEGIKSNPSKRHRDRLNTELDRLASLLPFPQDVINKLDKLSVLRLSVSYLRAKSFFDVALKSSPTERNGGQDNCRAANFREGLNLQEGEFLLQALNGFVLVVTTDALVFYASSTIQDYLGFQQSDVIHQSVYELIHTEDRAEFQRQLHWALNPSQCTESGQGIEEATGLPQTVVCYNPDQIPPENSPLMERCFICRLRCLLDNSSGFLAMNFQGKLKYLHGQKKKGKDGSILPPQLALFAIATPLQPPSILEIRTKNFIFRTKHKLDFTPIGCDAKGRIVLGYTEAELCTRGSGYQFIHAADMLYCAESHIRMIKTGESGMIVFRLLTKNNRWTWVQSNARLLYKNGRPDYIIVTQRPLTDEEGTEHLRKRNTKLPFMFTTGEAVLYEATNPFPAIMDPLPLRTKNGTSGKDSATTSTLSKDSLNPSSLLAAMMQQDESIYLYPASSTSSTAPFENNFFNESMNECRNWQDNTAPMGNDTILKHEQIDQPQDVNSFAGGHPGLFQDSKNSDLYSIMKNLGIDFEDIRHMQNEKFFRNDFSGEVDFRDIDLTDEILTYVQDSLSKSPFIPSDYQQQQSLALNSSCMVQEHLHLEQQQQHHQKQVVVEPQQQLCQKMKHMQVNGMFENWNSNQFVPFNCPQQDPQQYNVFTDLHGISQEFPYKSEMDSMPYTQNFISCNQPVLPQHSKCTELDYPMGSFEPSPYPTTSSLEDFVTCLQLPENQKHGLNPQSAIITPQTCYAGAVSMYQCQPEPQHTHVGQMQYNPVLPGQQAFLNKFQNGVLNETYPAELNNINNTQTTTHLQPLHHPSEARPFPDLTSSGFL
Outline: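 U87 MG + DRE-firefly/constitutive-Renilla stable reporters; kynurenic acid prestim; dual-luc read; Renilla = tox; normalized vs pos/neg controls (pos: 150 μM KYNA + 5 μM staurosporine).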

| Structure (SMILES) | IC50 (AHR [1]) | IC50 (AHR [2]) |
| --- | --- | --- |
| CC[C@H](Nc1nc2ccccc2c2nc(-c3ccccc3S(C)(=O)=O)nn12)C(N)=O [Example 450, (2S)-2-({2-[2-(methanesulfonyl)phenyl][1,2,4]triazolo[1,5-c]quinazolin-5-yl}amino)butanamide] | 8.57 µM | > 2e-05 M |
| CC[C@@H](Nc1nc2ccccc2c2nc(-c3ccccc3S(C)(=O)=O)nn12)C(N)=O [Example 451, (2R)-2-({2-[2-(methanesulfonyl)phenyl][1,2,4]triazolo[1,5-c]quinazolin-5-yl}amino)butanamide] | 0.131 µM | 7.16e-06 M |
| O=C1NCCCC[C@@H]1Nc1nc2ccccc2c2nc(-c3ccccc3OC(F)(F)F)nn12 [Example 457, (3S)-3-({2-[2-(trifluoromethoxy)phenyl][1,2,4]triazolo[1,5-c]quinazolin-5-yl}amino)azepan-2-one] | 0.0783 µM | 9.89e-07 M |
| O=C1NCC[C@H]1Nc1nc2ccccc2c2nc(-c3ccccc3OC(F)(F)F)nn12 [Example 459, (3R)-3-({2-[2-(trifluoromethoxy)phenyl][1,2,4]triazolo[1,5-c]quinazolin-5-yl}amino)pyrrolidin-2-one] | 0.0302 µM | 7.9e-08 M |
| CCCCNC(=O)CNc1nc2ccccc2c2nc(-c3ccccc3OC(F)(F)F)nn12 [Example 466, N-butyl-N^2-{2-[2-(trifluoromethoxy)phenyl][1,2,4]triazolo[1,5-c]quinazolin-5-yl}glycinamide] | 0.107 µM | 1.26e-07 M |
| NC(=O)[C@@H](CO)Nc1nc2ccccc2c2nc(-c3ccccc3OC(F)(F)F)nn12 [Example 468, N^2-{2-[2-(trifluoromethoxy)phenyl][1,2,4]triazolo[1,5-c]quinazolin-5-yl}-D-serinamide] | 0.0427 µM | 6.73e-08 M |

These reach a lower IC50 (AHR [1]). Values come first.

| IC50 (AHR [1]) | IC50 (AHR [2]) | Structure (SMILES) |
| --- | --- | --- |
| 0.00335 µM | 3.98e-09 M | O=C1NCCCC[C@H]1Nc1nc2ccccc2c2nc(-c3ccccc3Br)nn12 [Example 452, (3R)-3-{[2-(2-bromophenyl)[1,2,4]triazolo[1,5-c]quinazolin-5-yl]amino}azepan-2-one] |
| 0.00356 µM | 2.98e-09 M | O=C1NCCCC[C@H]1Nc1nc2ccccc2c2nc(-c3ccccc3OC(F)(F)F)nn12 [Example 456, (3R)-3-({2-[2-(trifluoromethoxy)phenyl][1,2,4]triazolo[1,5-c]quinazolin-5-yl}amino)azepan-2-one] |
| 0.028 µM | 6.37e-08 M | O=C1NCCC[C@H]1Nc1nc2ccccc2c2nc(-c3ccccc3OC(F)(F)F)nn12 [Example 458, (3R)-3-({2-[2-(trifluoromethoxy)phenyl][1,2,4]triazolo[1,5-c]quinazolin-5-yl}amino)piperidin-2-one] |
| 0.00195 µM | 6.18e-09 M | O=C1NCCCCCC1Nc1nc2ccccc2c2nc(-c3ccccc3OC(F)(F)F)nn12 (centres unmarked) [Example 461, 3-({2-[2-(trifluoromethoxy)phenyl][1,2,4]triazolo[1,5-c]quinazolin-5-yl}amino)azocan-2-one] |
| 0.00188 µM | 2.94e-08 M | CCNC(=O)C(CC)Nc1nc2ccccc2c2nc(-c3ccccc3OC(F)(F)F)nn12 (centres unmarked) [Example 463, N-ethyl-2-({2-[2-(trifluoromethoxy)phenyl][1,2,4]triazolo[1,5-c]quinazolin-5-yl}amino)butanamide] |
| 0.00391 µM | 5.89e-08 M | CCC[C@@H](Nc1nc2ccccc2c2nc(-c3ccccc3OC(F)(F)F)nn12)C(=O)NC [Example 464, N-methyl-N^2-{2-[2-(trifluoromethoxy)phenyl][1,2,4]triazolo[1,5-c]quinazolin-5-yl}-D-norvalinamide] |
| 0.00387 µM | 1.34e-08 M | CCCNC(=O)[C@@H](C)Nc1nc2ccccc2c2nc(-c3ccccc3OC(F)(F)F)nn12 [Example 465, N-propyl-N^2-{2-[2-(trifluoromethoxy)phenyl][1,2,4]triazolo[1,5-c]quinazolin-5-yl}-D-alaninamide] |
